Experimental data from article PMC11007962, “First-in-human study of GFH018, a small molecule inhibitor of transforming growth factor-β receptor I inhibitor, in patients with advanced solid tumors” (BMC Cancer, 2024).
Read-outs that look alike come from different tables or passages of the source.

System: patients with advanced solid tumors
[1] = 30 mg BID 14d-on/14d-off (N = 7)
[2] = 40 mg BID 14d-on/14d-off (N = 4)
[3] = 50 mg BID 14d-on/14d-off (N = 4)
[4] = 65 mg BID 14d-on/14d-off (N = 6)

Method: The study consisted of a dose-escalation part followed by an expansion part. In the dose escalation part, a 3-day pharmacokinetic (PK) lead-in period was conducted for a single dose in the first treatment cycle. Patients received GFH018 once on cycle 1 day 1 (C1D1) and underwent serial PK testing over the first 3 days. On C1D4, patients were administered the corresponding dose of GFH018 BID 14 days on/14 days off. The first cycle was defined as 31 days, including 3-day PK leading-in period with GFH018 single dosing and then 14d-on/14d-off dosing schedule. The subsequent cycles were 28 days. The starting dose of GFH018 was 5 mg, with eight planned dose levels up to 85 mg (5, 10, 20, 30, 40, 50, 65, and 85 mg). A modified 3+3 design was used to determine the maximum tolerance dose (MTD) and RDE, guided by safety/tolerability and PK data. Dose-limiting toxicities (DLTs) were evaluated during the first cycle at each dose level. The safety of 85 mg BID, 7 d-on/7 d-off, was explored after confirming the safety of 14 d-on/14 d-off. The DLTs were defined as hematological toxicities, including G4 neutropenia lasting for more than 5 days, G3 febrile neutropenia, G4 anemia, G4 thrombocytopenia, or G3 thrombocytopenia accompanied by bleeding, and ≥ G3 nonhematological toxicity (except for diarrhea, nausea, vomiting, and rash recovering ≤ G2 after supportive treatment within 3 days). The DLTs for cardiac toxicities included ≥ G2 cardiac valve abnormalities, ≥ G2 left ventricular ejection fraction (LVEF) decrease, any cardiovascular impairment shown in imaging, and abnormal highly sensitive troponin (hs-Tn) increased to ≥ twice the baseline in two consecutive tests with an interval ≥ 3 days. In the expansion part, patients were orally administered GFH018 RDE twice daily to further evaluate the safety of RDE and other dose regimens. […] The treatment cycle lasted 28 days.
All enrolled patients were monitored regularly after GFH018 administration. Safety assessments included adverse events (AEs), serious AEs (SAEs), laboratory assessments, vital signs, physical examinations, electrocardiography and echocardiography. AEs were graded according to the NCI Common Terminology Criteria for Adverse Events (NCI-CTCAE) v5.0. All AEs were followed up until they were stable or had recovered to baseline. Adverse events of special interest (AESIs) were predefined as echocardiographic abnormalities such as aggravated stenosis or regurgitation of the heart valves, clinically significant decreases in LVEF, brain natriuretic peptide (BNP) or N-terminal pro-brain natriuretic peptide (NT-proBNP) increases, and hs-Tn increases judged by investigators.
For the safety and efficacy analyses, data from patients who received GFH018 at the same dose in the dose-escalation and expansion cohorts were pooled. The demographic and baseline characteristics were summarized using descriptive methods. Safety and efficacy data were summarized for all patients who received at least one dose of GFH018. The ORR and DCR were summarized by cohort and overall. When the sample size of the analyzed group was ten or more, the Kaplan–Meier method was used to estimate the median PFS and TTP. In this study, treatment-emergent AEs (TEAEs) were defined as AEs that occurred on or after the first dosing date of GFH018 and no later than 30 days after the last dose of GFH018. The incidence and severity of AEs were descriptively summarized according to dose level. The PK parameters of GFH018 were calculated using noncompartmental analysis methods. All plasma PK data were summarized by cohort and visit day or time using descriptive statistics.

Cc1cccc(-c2nn3c(c2-c2ccc4ncnn4c2/C=C/C(N)=O)CCC3)n1 [GFH018]
TEAE: Urine protein present [1]: 0 n (%)
TEAE: White blood cell count decreased [1]: 0 n (%)
TEAE: White blood cells urine positive [1]: 0 n (%)
TRAE: ALP increased [1]: 0 n (%)
TRAE: ALT increased [1]: 2 (28.6%) n (%)
TRAE: AST increased [1]: 2 (28.6%) n (%)
TRAE: Anemia [1]: 0 n (%)
TRAE: GGT increased [1]: 0 n (%)
TRAE: LDH increased [1]: 1 (14.3%) n (%)
TRAE: Lymphocyte count decreased [1]: 1 (14.3%) n (%)
TRAE: Protein urine present [1]: 0 n (%)
TRAE: Proteinuria [1]: 3 (42.9%) n (%)
Treatment-emergent Proteinuria (grouped PTs), G1 [1]: 3 (42.9) n (%)
Treatment-emergent Proteinuria (grouped PTs), G2 [1]: 1 (14.3) n (%)
Treatment-emergent Proteinuria (grouped PTs), G3 [1]: 0 n (%)
Treatment-emergent Proteinuria (grouped PTs: proteinuria and urine protein present), any grade [1]: 4 (57.1) n (%)
At least one TEAE [2]: 4 (100%) n (%)
At least one TRAE [2]: 4 (100%) n (%)
TEAE: ALP increased [2]: 1 (25.0%) n (%)
TEAE: ALT increased [2]: 0 n (%)
TEAE: AST increased [2]: 0 n (%)
TEAE: Abdominal distention [2]: 0 n (%)
TEAE: Abdominal pain [2]: 0 n (%)
TEAE: Anemia [2]: 1 (25.0%) n (%)
TEAE: Asthenia [2]: 1 (25.0%) n (%)
TEAE: Bilirubin conjugated increased [2]: 0 n (%)
TEAE: Blood albumin decreased [2]: 0 n (%)
TEAE: Blood bilirubin increased [2]: 0 n (%)
TEAE: C-reactive protein increased [2]: 0 n (%)
TEAE: Constipation [2]: 0 n (%)
TEAE: Decreased appetite [2]: 0 n (%)
TEAE: GGT increased [2]: 0 n (%)
TEAE: Hypoalbuminemia [2]: 0 n (%)
TEAE: LDH increased [2]: 1 (25.0%) n (%)
TEAE: Lymphocyte count decreased [2]: 0 n (%)
TEAE: Platelet count decreased [2]: 1 (25.0%) n (%)
TEAE: Proteinuria [2]: 0 n (%)
TEAE: Sinus tachycardia [2]: 1 (25.0%) n (%)
TEAE: Urine protein present [2]: 0 n (%)
TEAE: White blood cell count decreased [2]: 0 n (%)
TEAE: White blood cells urine positive [2]: 0 n (%)
TRAE: ALP increased [2]: 1 (25.0%) n (%)
TRAE: ALT increased [2]: 0 n (%)
TRAE: AST increased [2]: 0 n (%)
TRAE: Anemia [2]: 0 n (%)
TRAE: GGT increased [2]: 0 n (%)
TRAE: LDH increased [2]: 1 (25.0%) n (%)
TRAE: Lymphocyte count decreased [2]: 0 n (%)
TRAE: Protein urine present [2]: 0 n (%)
TRAE: Proteinuria [2]: 0 n (%)
Treatment-emergent Proteinuria (grouped PTs), G1 [2]: 0 n (%)
Treatment-emergent Proteinuria (grouped PTs), G2 [2]: 0 n (%)
Treatment-emergent Proteinuria (grouped PTs), G3 [2]: 0 n (%)
Treatment-emergent Proteinuria (grouped PTs: proteinuria and urine protein present), any grade [2]: 0 n (%)
At least one TEAE [3]: 4 (100%) n (%)
At least one TRAE [3]: 2 (50.0%) n (%)
TEAE: ALP increased [3]: 1 (25.0%) n (%)
TEAE: ALT increased [3]: 1 (25.0%) n (%)
TEAE: AST increased [3]: 1 (25.0%) n (%)
TEAE: Abdominal distention [3]: 1 (25.0%) n (%)
TEAE: Abdominal pain [3]: 0 n (%)
TEAE: Anemia [3]: 3 (75.0%) n (%)
TEAE: Asthenia [3]: 0 n (%)
TEAE: Bilirubin conjugated increased [3]: 0 n (%)
TEAE: Blood albumin decreased [3]: 0 n (%)
TEAE: Blood bilirubin increased [3]: 0 n (%)
TEAE: C-reactive protein increased [3]: 0 n (%)
TEAE: Constipation [3]: 0 n (%)
TEAE: Decreased appetite [3]: 1 (25.0%) n (%)
TEAE: GGT increased [3]: 1 (25.0%) n (%)
TEAE: Hypoalbuminemia [3]: 0 n (%)
TEAE: LDH increased [3]: 0 n (%)
TEAE: Lymphocyte count decreased [3]: 0 n (%)
TEAE: Platelet count decreased [3]: 0 n (%)
TEAE: Proteinuria [3]: 0 n (%)
TEAE: Sinus tachycardia [3]: 1 (25.0%) n (%)
TEAE: Urine protein present [3]: 1 (25.0%) n (%)
TEAE: White blood cell count decreased [3]: 0 n (%)
TEAE: White blood cells urine positive [3]: 0 n (%)
TRAE: ALP increased [3]: 1 (25.0%) n (%)
TRAE: ALT increased [3]: 1 (25.0%) n (%)
TRAE: AST increased [3]: 1 (25.0%) n (%)
TRAE: Anemia [3]: 0 n (%)
TRAE: GGT increased [3]: 1 (25.0%) n (%)
TRAE: LDH increased [3]: 0 n (%)
TRAE: Lymphocyte count decreased [3]: 0 n (%)
TRAE: Protein urine present [3]: 1 (25.0%) n (%)
TRAE: Proteinuria [3]: 0 n (%)
Treatment-emergent Proteinuria (grouped PTs), G1 [3]: 1 (25.0) n (%)
Treatment-emergent Proteinuria (grouped PTs), G2 [3]: 0 n (%)
Treatment-emergent Proteinuria (grouped PTs), G3 [3]: 0 n (%)
Treatment-emergent Proteinuria (grouped PTs: proteinuria and urine protein present), any grade [3]: 1 (25.0) n (%)
At least one TEAE [4]: 5 (83.3%) n (%)
At least one TRAE [4]: 5 (83.3%) n (%)
TEAE: ALP increased [4]: 0 n (%)
TEAE: ALT increased [4]: 0 n (%)
TEAE: AST increased [4]: 2 (33.3%) n (%)
TEAE: Abdominal distention [4]: 0 n (%)
TEAE: Abdominal pain [4]: 1 (16.7%) n (%)
TEAE: Anemia [4]: 3 (50.0%) n (%)
TEAE: Asthenia [4]: 0 n (%)
TEAE: Bilirubin conjugated increased [4]: 0 n (%)
TEAE: Blood albumin decreased [4]: 0 n (%)
TEAE: Blood bilirubin increased [4]: 1 (16.7%) n (%)
TEAE: C-reactive protein increased [4]: 0 n (%)
TEAE: Constipation [4]: 1 (16.7%) n (%)
TEAE: Decreased appetite [4]: 1 (16.7%) n (%)
TEAE: GGT increased [4]: 1 (16.7%) n (%)
TEAE: Hypoalbuminemia [4]: 0 n (%)
TEAE: LDH increased [4]: 0 n (%)
TEAE: Lymphocyte count decreased [4]: 0 n (%)
TEAE: Platelet count decreased [4]: 1 (16.7%) n (%)
TEAE: Proteinuria [4]: 1 (16.7%) n (%)
TEAE: Sinus tachycardia [4]: 2 (33.3%) n (%)
TEAE: Urine protein present [4]: 1 (16.7%) n (%)
TEAE: White blood cell count decreased [4]: 2 (33.3%) n (%)
TEAE: White blood cells urine positive [4]: 1 (16.7%) n (%)
TRAE: ALP increased [4]: 0 n (%)
TRAE: ALT increased [4]: 0 n (%)
TRAE: AST increased [4]: 2 (33.3%) n (%)
TRAE: Anemia [4]: 2 (33.3%) n (%)
TRAE: GGT increased [4]: 0 n (%)
TRAE: LDH increased [4]: 0 n (%)
TRAE: Lymphocyte count decreased [4]: 0 n (%)
TRAE: Protein urine present [4]: 0 n (%)
TRAE: Proteinuria [4]: 1 (16.7%) n (%)
Treatment-emergent Proteinuria (grouped PTs), G1 [4]: 1 (16.7) n (%)
Treatment-emergent Proteinuria (grouped PTs), G2 [4]: 1 (16.7) n (%)
Treatment-emergent Proteinuria (grouped PTs), G3 [4]: 0 n (%)
Treatment-emergent Proteinuria (grouped PTs: proteinuria and urine protein present), any grade [4]: 2 (33.3) n (%)
safety profile of 7 d-on/7 d-off versus 14 d-on/14 d-off regimen (85 mg BID): not significantly different
At least one TEAE (85 mg BID 7d-on/7d-off (N = 6)): 5 (83.3%) n (%)
At least one TEAE (Table S3) (85 mg BID 7d-on/7d-off (N = 6)): 5 (83.3%) n (%)
At least one TRAE (85 mg BID 7d-on/7d-off (N = 6)): 3 (50.0%) n (%)
TEAE: ALP increased (85 mg BID 7d-on/7d-off (N = 6)): 1 (16.7%) n (%)
TEAE: ALT increased (85 mg BID 7d-on/7d-off (N = 6)): 0 n (%)
